Results taken from paper PMC9780108, “An intrinsically disordered antimicrobial peptide dendrimer from stereorandomized virtual screening” (Cell Reports. Physical Science, 2022).
Values after ≈ are worked out from the molar mass of the structure shown. Positions of bridges follow the written chain, without caps; N, C: chain ends. Non-standard residues stand in square brackets, D forms with d. Residues, ends and D or L forms follow the SMILES beside them. Groups on a side chain read outwards from the residue. Chains are numbered I, II in the order given. *: point of attachment. X4 = CC(C)C[C@@H](NC(=O)CCCCCN)C(=O)NCCCC[C@@H](NC(=O)[C@@H](CC(C)C)NC(=O)CCCCCN)C(=O)*; Ahx = NCCCCCC(=O)O

How the values were obtained:
[1] = tested on: S aureus COL (methicillin-resistant Staphylococcus aureus)
HEK293 cell line = assay type: cell-based; conditions: 48 h
Description: HEK 293 cell line were cultured and maintained in DMEM (Dulbeccos modified Eagle
medium, Sigma Aldrich) supplemented with 10% FBS (Sigma Aldrich) and 1%
penicillin/streptomycin. Cells were incubated in a humidified incubator at 37°C in the presence
HEK 293 cell were seeded into 96 well plates at the density of 2 × 10^3 cells/well and incubated
in DMEM containing 10% FBS for 10-14 hours at 37°C in the presence of 5% CO2. The next
day, stock solution of compounds were prepared at concentration of 2 mg/mL in DMEM
containing 10% FBS. 1/2 or 1/3 serial dilution of the peptide dendrimers from 2 mg/mL or 200
µg/mL were performed in DMEM containing 10% FBS. The medium was removed from cell
culture and replaced with the compounds at different concentration after washing with PBS.
The cells were incubated in DMEM containing 10% FBS at 37°C in the presence of 5% CO 2.
Negative control was untreated cell culture without compounds and blank control was wells
without cell but only medium. After 48 hours, a final concentration of 10% AlamarBlue®
(Thermo Fisher Scientific, Reinach, CH) was added to each well . The cells were incubated for
3-5 hours at 37°C with 5% CO 2. The fluorescence was then measured on a Tecan Infinite
M1000 Pro plate reader at λex = 560 nm and λem = 590 nm. The value was normalized
according to the untreated cells.

- MIC at pH 5.0, K. pneumoniae NCTC 418 (K. pneumoniae NCTC 418; NCTC 418, pH 5): 64 μg/mL
- MIC at pH 7.4, K. pneumoniae NCTC 418 (K. pneumoniae NCTC 418; NCTC 418, pH 7.4): 16 μg/mL
- MIC at pH 8.0, K. pneumoniae NCTC 418 (K. pneumoniae NCTC 418; NCTC 418, pH 8): 16 μg/mL
- MIC at pH 5.0, S aureus COL ([1]; COL (methicillin-resistant, pH 5)): > 64 μg/mL
- MIC at pH 7.4, S aureus COL ([1]; COL (methicillin-resistant, pH 7.4)): 16 μg/mL
- MIC at pH 8.0, S aureus COL ([1]; COL (methicillin-resistant, pH 8)): 4 μg/mL
- MIC at pH 5.0, A. baumannii ATCC 19606 (A. baumannii ATCC 19606; ATCC 19606, pH 5): 4/4/4 μg/mL
- MIC at pH 7.4, A. baumannii ATCC 19606 (A. baumannii ATCC 19606; ATCC 19606, pH 7.4): 4/4/4 μg/mL
- MIC at pH 8.0, A. baumannii ATCC 19606 (A. baumannii ATCC 19606; ATCC 19606, pH 8): 4/4/4 μg/mL
- MIC at pH 5.0, E. coli W3110 (E. coli W3110; W3110, pH 5): 4 μg/mL
- MIC at pH 7.4, E. coli W3110 (E. coli W3110; W3110, pH 7.4): 8 μg/mL
- MIC at pH 8.0, E. coli W3110 (E. coli W3110; W3110, pH 8): 4 μg/mL
- MIC at pH 5.0, P. aeruginosa PAO1 (P. aeruginosa PAO1; PAO1, pH 5): 32 μg/mL
- MIC at pH 7.4, P. aeruginosa PAO1 (P. aeruginosa PAO1; PAO1, pH 7.4): 8 μg/mL
- MIC at pH 8.0, P. aeruginosa PAO1 (P. aeruginosa PAO1; PAO1, pH 8): 16 μg/mL
SMILES: CC(C)C[C@@H](NC(=O)CCCCCN)C(=O)NCCCC[C@@H](NC(=O)[C@@H](CC(C)C)NC(=O)CCCCCN)C(=O)N[C@H](CC(C)C)C(=O)NCCCC[C@@H](NC(=O)[C@@H](CC(C)C)NC(=O)[C@@H](CCCCNC(=O)[C@@H](CC(C)C)NC(=O)CCCCCN)NC(=O)[C@@H](CC(C)C)NC(=O)CCCCCN)C(=O)N[C@H](CCCCN)C(=O)N[C@H](CC(C)C)C(=O)N[C@H](CC(C)C)C(=O)NCCCC[C@@H](NC(=O)[C@@H](CC(C)C)NC(=O)[C@@H](CC(C)C)NC(=O)[C@@H](CCCCN)NC(=O)[C@@H](CCCCNC(=O)[C@@H](CC(C)C)NC(=O)[C@@H](CCCCNC(=O)[C@@H](CC(C)C)NC(=O)CCCCCN)NC(=O)[C@@H](CC(C)C)NC(=O)CCCCCN)NC(=O)[C@@H](CC(C)C)NC(=O)[C@@H](CCCCNC(=O)[C@@H](CC(C)C)NC(=O)CCCCCN)NC(=O)[C@@H](CC(C)C)NC(=O)CCCCCN)C(=O)N[C@H](CC(C)C)C(=O)N[C@H](CCCCN)C(=O)N[C@H](CCCCN)C(N)=O [D-aX22] (I: H-[Ahx][dL][dK]([dL-Ahx])[dL][dK]([dL-X4])[dK][dL][dL][dK][dL][dK][dK]-NH2 / II: H-[Ahx][dL][dK]([dL-Ahx])[dL][dK]([dL-X4])[dK][dL][dL]; amide I:9-II:C)
- IC50 HEK293 (HEK293 cell line): 17 ± 2 µg/mL (≈ 3.99 µM)
